Data from ChEMBL document CHEMBL4507269, “Data for DCP probe BAY-386” (2021).

How the values were obtained:
[1] = biological target: T1, Alpha-1A adrenergic receptor (Homo sapiens) (UniProt P35348); assay: alpha1A (h) Eurofins-Cerep Cellular and Nuclear Receptor Functional Assays; settings: Compound concentration 10.0 uM
T1 sequence (whole entry): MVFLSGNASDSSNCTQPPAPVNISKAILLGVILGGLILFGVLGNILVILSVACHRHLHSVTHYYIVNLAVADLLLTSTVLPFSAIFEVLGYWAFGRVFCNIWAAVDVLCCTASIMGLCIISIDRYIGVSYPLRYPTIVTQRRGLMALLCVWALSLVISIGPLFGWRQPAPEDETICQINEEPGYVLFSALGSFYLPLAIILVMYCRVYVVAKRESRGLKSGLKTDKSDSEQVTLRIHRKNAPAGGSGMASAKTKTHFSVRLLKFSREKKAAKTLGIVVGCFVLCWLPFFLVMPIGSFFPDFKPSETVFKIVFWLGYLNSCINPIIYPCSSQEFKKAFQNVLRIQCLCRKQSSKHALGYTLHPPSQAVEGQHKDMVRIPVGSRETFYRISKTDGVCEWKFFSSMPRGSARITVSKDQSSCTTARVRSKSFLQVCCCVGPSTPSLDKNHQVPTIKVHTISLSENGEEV

[2] = biological target: T2, Alpha-2A adrenergic receptor (Homo sapiens) (UniProt P08913); assay: alpha2A (h) Eurofins-Cerep Cellular and Nuclear Receptor Functional Assays; settings: Compound concentration 10.0 uM
T2 sequence (whole entry): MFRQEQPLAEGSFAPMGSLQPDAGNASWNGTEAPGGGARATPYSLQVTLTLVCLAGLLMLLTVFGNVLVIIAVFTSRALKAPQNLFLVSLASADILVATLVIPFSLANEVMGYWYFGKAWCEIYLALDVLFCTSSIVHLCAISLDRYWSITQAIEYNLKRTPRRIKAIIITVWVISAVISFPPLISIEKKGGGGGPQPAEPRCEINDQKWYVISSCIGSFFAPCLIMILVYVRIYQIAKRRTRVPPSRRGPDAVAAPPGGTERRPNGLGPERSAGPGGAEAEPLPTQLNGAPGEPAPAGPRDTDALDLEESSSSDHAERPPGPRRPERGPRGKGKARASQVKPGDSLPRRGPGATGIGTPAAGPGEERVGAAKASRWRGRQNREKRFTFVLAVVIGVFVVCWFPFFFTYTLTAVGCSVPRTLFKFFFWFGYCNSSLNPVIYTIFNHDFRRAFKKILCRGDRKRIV

[3] = biological target: T3, 5-hydroxytryptamine receptor 1A (Homo sapiens) (UniProt P08908); assay: 5-HT1A (h) Eurofins-Cerep Cellular and Nuclear Receptor Functional Assays; settings: Compound concentration 10.0 uM
T3 sequence (whole entry): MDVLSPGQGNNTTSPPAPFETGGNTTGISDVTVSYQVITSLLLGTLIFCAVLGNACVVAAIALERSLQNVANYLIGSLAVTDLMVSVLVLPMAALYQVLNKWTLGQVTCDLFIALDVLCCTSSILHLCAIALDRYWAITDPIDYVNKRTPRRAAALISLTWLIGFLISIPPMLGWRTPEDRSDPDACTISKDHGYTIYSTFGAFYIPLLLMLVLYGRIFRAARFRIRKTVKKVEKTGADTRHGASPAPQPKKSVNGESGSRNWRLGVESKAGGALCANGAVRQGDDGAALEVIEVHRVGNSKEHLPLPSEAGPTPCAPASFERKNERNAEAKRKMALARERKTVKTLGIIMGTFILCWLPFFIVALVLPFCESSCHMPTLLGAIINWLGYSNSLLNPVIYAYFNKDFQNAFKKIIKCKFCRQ

[4] = biological target: AP2-associated protein kinase 1 (Homo sapiens) (UniProt Q2M2I8); settings: Compound concentration 1000.0 nM
[5] = system: Tyrosine-protein kinase ABL1 (Homo sapiens), P00519 [E255K]; settings: Compound concentration 1000.0 nM
[6] = system: ALK tyrosine kinase receptor (Homo sapiens), Q9UM73 [C1156Y]; settings: Compound concentration 1000.0 nM
[7] = biological target: Aurora kinase C (Homo sapiens) (UniProt Q9UQB9); settings: Compound concentration 1000.0 nM
[8] = biological target: Bone morphogenetic protein receptor type-1B (Homo sapiens) (UniProt O00238); settings: Compound concentration 1000.0 nM
[9] = biological target: Dual specificity protein kinase CLK2 (Homo sapiens) (UniProt P49760); settings: Compound concentration 1000.0 nM
[10] = biological target: Casein kinase II subunit alpha' (Homo sapiens) (UniProt P19784); settings: Compound concentration 1000.0 nM
[11] = biological target: Epithelial discoidin domain-containing receptor 1 (Homo sapiens) (UniProt Q08345); settings: Compound concentration 1000.0 nM
[12] = biological target: Discoidin domain-containing receptor 2 (Homo sapiens) (UniProt Q16832); settings: Compound concentration 1000.0 nM
[13] = biological target: Ephrin type-A receptor 1 (Homo sapiens) (UniProt P21709); settings: Compound concentration 1000.0 nM
[14] = system: Receptor-type tyrosine-protein kinase FLT3 (Homo sapiens), P36888 [K663Q]; settings: Compound concentration 1000.0 nM
[15] = biological target: Homeodomain-interacting protein kinase 3 (Homo sapiens) (UniProt Q9H422); settings: Compound concentration 1000.0 nM
[16] = biological target: Homeodomain-interacting protein kinase 4 (Homo sapiens) (UniProt Q8NE63); settings: Compound concentration 1000.0 nM
[17] = biological target: Mitogen-activated protein kinase kinase kinase kinase 1 (Homo sapiens) (UniProt Q92918); settings: Compound concentration 1000.0 nM
[18] = biological target: Misshapen-like kinase 1 (Homo sapiens) (UniProt Q8N4C8); settings: Compound concentration 1000.0 nM
[19] = biological target: Phosphatidylinositol 4,5-bisphosphate 3-kinase catalytic subunit alpha isoform (Homo sapiens) (UniProt P42336); settings: Compound concentration 1000.0 nM
[20] = biological target: Serine/threonine-protein kinase N1 (Homo sapiens) (UniProt Q16512); settings: Compound concentration 1000.0 nM
[21] = biological target: Serine/threonine-protein kinase PknB (Mycobacterium tuberculosis) (UniProt P9WI81); settings: Compound concentration 1000.0 nM
[22] = system: Proto-oncogene tyrosine-protein kinase receptor Ret (Homo sapiens), P07949 [V804M]; settings: Compound concentration 1000.0 nM
[23] = biological target: Ribosomal protein S6 kinase alpha-4 (Homo sapiens) (UniProt O75676); settings: Compound concentration 1000.0 nM
[24] = biological target: Serine/threonine-protein kinase TAO2 (Homo sapiens) (UniProt Q9UL54); settings: Compound concentration 1000.0 nM
[25] = biological target: Tyrosine-protein kinase TXK (Homo sapiens) (UniProt P42681); settings: Compound concentration 1000.0 nM
[26] = biological target: Serine/threonine-protein kinase WNK1 (Homo sapiens) (UniProt Q9H4A3); settings: Compound concentration 1000.0 nM

Sequence of Proto-oncogene tyrosine-protein kinase receptor Ret (Homo sapiens), P07949 [V804M] (P07949 whole entry V804M): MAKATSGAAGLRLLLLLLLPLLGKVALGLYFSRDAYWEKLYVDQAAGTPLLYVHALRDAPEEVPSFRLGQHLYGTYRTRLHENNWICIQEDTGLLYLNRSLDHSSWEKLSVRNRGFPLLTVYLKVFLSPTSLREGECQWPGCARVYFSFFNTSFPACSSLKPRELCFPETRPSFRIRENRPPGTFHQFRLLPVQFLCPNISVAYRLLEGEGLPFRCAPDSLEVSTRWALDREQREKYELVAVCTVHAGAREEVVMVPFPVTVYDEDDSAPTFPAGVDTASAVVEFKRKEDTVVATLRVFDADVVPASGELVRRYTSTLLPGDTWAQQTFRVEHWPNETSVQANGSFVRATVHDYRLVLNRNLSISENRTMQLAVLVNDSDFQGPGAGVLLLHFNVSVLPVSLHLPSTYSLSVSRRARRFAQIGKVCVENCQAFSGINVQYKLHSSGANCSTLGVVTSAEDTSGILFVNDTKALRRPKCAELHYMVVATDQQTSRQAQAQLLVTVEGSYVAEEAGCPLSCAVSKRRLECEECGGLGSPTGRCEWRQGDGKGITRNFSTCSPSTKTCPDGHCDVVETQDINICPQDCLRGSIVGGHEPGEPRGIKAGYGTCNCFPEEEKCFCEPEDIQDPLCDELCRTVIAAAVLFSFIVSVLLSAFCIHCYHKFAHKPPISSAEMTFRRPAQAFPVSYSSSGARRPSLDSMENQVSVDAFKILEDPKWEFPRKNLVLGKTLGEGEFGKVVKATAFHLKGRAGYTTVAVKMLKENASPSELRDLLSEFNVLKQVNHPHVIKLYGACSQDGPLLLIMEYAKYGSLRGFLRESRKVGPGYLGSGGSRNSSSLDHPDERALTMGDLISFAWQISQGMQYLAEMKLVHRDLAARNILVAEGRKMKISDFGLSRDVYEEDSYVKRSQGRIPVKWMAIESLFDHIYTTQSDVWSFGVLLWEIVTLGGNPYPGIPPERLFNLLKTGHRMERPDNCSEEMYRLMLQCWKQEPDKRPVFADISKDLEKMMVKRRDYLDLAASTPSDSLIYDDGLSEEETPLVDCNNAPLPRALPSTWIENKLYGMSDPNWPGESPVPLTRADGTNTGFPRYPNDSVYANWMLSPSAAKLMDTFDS
Sequence of Casein kinase II subunit alpha' (Homo sapiens) (P19784 whole entry, looked up, the tested form may be a part): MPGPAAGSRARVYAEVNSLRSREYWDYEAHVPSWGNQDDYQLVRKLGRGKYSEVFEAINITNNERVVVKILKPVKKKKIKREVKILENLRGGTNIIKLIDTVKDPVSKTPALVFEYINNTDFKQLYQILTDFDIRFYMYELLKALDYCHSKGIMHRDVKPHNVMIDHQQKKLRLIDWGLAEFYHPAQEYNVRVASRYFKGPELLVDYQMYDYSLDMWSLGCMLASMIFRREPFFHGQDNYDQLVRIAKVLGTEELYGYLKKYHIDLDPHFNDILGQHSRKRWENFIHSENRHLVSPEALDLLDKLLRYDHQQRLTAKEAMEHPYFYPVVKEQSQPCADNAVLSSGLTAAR
Sequence of Serine/threonine-protein kinase N1 (Homo sapiens) (Q16512 2-942 limits assumed): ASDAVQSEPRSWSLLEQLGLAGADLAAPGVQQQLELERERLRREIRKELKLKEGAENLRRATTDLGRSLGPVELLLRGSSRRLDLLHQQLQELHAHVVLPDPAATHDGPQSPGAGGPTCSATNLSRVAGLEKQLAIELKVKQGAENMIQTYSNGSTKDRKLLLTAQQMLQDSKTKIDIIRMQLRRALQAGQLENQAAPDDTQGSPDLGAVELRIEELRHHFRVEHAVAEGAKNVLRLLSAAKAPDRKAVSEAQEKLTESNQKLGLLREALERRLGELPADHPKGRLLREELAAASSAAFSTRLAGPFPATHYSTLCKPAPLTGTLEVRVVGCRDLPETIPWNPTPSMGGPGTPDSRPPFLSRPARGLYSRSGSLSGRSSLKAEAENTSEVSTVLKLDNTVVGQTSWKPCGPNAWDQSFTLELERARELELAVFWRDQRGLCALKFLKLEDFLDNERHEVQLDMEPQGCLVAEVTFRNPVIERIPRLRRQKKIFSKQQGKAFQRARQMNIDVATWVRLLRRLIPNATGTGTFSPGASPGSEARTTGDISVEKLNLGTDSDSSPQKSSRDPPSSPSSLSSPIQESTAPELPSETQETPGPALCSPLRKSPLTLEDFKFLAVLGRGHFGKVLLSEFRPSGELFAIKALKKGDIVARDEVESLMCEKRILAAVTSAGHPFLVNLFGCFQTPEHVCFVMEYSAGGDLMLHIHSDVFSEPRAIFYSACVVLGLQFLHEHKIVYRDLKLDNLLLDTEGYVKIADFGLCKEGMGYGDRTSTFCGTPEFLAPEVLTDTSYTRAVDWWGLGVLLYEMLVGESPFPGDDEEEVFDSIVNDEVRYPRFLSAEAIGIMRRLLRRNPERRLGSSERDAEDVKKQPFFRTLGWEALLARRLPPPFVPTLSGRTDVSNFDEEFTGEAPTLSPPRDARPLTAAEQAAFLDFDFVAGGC
Sequence of Bone morphogenetic protein receptor type-1B (Homo sapiens) (O00238 whole entry): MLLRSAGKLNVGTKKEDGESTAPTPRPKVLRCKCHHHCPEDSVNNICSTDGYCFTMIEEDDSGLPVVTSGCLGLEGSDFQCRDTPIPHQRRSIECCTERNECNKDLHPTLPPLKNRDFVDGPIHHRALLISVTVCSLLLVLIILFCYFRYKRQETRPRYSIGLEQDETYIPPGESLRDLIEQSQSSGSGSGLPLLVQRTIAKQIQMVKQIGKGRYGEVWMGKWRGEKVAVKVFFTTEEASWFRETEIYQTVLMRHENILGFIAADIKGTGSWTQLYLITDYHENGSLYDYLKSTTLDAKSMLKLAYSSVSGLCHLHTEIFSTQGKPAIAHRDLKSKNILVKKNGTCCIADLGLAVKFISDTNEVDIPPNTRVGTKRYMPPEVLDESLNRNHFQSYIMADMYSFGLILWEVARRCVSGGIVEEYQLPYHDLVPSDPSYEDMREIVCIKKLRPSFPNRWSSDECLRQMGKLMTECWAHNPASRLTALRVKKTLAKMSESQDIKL
Sequence of Tyrosine-protein kinase ABL1 (Homo sapiens), P00519 [E255K] (P00519 whole entry E255K): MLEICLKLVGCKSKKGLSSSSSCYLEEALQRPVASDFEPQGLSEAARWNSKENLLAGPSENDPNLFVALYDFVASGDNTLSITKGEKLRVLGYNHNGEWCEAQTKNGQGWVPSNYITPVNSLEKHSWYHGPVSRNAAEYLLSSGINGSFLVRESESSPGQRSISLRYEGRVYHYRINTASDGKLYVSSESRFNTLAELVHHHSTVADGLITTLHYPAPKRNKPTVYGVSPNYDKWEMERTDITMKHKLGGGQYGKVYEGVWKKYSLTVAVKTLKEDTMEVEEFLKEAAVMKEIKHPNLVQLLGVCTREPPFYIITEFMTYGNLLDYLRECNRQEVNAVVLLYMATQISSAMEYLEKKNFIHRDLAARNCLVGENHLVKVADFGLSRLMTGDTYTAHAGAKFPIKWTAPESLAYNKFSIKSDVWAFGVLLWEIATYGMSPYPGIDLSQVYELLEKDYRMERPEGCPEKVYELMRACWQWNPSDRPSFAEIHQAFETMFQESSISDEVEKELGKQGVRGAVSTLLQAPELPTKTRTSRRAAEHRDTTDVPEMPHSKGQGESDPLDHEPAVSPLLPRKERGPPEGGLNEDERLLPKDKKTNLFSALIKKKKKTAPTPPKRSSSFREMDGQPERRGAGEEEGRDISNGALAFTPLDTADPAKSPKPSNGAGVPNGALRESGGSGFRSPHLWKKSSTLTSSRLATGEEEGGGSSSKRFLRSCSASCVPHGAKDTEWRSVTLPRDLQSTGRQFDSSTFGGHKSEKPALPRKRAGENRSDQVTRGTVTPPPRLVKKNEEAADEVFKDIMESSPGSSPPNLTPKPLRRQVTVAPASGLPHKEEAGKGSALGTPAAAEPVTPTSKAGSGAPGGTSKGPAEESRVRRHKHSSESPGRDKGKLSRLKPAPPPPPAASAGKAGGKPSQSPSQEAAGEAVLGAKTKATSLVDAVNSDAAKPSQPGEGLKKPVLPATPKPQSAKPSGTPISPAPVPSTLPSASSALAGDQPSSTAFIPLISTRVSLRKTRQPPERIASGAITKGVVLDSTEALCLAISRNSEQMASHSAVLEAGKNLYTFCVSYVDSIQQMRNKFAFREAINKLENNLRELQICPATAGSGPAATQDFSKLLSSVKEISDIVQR
Sequence of Epithelial discoidin domain-containing receptor 1 (Homo sapiens) (Q08345 whole entry, the tested form may be a part): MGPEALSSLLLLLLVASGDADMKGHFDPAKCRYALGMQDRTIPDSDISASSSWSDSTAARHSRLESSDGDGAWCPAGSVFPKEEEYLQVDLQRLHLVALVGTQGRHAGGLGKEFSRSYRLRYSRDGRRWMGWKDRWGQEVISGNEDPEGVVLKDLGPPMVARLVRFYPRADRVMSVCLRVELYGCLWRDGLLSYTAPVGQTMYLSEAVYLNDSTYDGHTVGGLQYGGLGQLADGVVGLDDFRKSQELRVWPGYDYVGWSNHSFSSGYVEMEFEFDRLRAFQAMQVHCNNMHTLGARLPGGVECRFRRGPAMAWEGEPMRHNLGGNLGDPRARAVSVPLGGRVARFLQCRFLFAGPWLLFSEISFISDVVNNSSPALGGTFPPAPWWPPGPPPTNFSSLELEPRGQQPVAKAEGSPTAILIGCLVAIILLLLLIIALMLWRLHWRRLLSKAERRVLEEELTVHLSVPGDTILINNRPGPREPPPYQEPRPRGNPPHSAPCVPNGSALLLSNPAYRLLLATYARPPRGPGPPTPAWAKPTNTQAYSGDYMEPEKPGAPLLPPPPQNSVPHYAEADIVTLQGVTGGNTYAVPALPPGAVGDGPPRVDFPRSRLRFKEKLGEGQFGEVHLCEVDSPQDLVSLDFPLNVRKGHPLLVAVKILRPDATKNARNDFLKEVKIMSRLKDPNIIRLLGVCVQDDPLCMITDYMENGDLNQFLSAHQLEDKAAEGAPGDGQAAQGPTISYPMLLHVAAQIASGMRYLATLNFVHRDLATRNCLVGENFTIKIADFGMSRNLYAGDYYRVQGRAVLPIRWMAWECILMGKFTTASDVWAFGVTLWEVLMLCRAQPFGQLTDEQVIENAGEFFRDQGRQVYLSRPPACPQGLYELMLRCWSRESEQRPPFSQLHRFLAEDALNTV

Row | SMILES | % Inhibition of Control Agonist Response (Mean n=2) [1] | % of Control Agonist Response (Mean n=2) [1] | % Inhibition of Control Agonist Response (Mean n=2) [2] | % of Control Agonist Response (Mean n=2) [2] | % Inhibition of Control Agonist Response (Mean n=2) [3] | % of Control Agonist Response (Mean n=2) [3] | residual activity [4] | residual activity [5] | residual activity [6] | residual activity [7] | residual activity [8] | residual activity [9] | residual activity [10] | residual activity [11] | residual activity [12] | residual activity [13] | residual activity [14] | residual activity [15] | residual activity [16] | residual activity [17] | other results
1 | O=C(N1CCS(=O)(=O)CC1)N1C[C@H](c2ccc(OC(F)(F)F)cc2)C[C@H](c2nc(C3CC3)no2)C1 [BAY-386] | 18.8% | 11.5% | -1.7% | 6.3% | 25.6% | -0.2% | 99% | 100% | 79% | 99% | 82% | 100% | 100% | 100% | 100% | 100% | 100% | 100% | 85% | 100% | residual activity [18]: 99%; residual activity [19]: 100%; residual activity [20]: 100%; residual activity [21]: 100%; residual activity [22]: 100%; residual activity [23]: 100%; residual activity [24]: 100%; residual activity [25]: 100%; residual activity [26]: 100%
2 | Cc1noc([C@H]2C[C@@H](c3ccc(C(F)(F)F)cc3)CN(C(=O)N3CCS(=O)(=O)C3)C2)n1 [BAY-448] | 4.3% | -0.4% | -13.5% | 2.5% | -23% | 1.1% | 100% | 100% | 100% | 100% | 100% | 100% | 90% | 100% | 74% | 89% | 100% | 96% | 100% | 100% | residual activity [18]: 100%; residual activity [19]: 99%; residual activity [20]: 100%; residual activity [21]: 82%; residual activity [22]: 100%; residual activity [23]: 100%; residual activity [24]: 76%; residual activity [25]: 92%; residual activity [26]: 86%
